The source of these data is ChEMBL document CHEMBL3526122, “Identification of UDP-glucuronosyltransferases responsible for the glucuronidation of darexaban, an oral factor Xa inhibitor, in human liver and intestine” (Drug Metab Dispos, 2012).

SMILES strings stand for the structures.

Holding throughout (format): ADME
Data set [1] concerns the target T1, UDP-glucuronosyltransferase 1A1 (Homo sapiens, UniProt P22309).
T1 sequence (P22309 whole entry): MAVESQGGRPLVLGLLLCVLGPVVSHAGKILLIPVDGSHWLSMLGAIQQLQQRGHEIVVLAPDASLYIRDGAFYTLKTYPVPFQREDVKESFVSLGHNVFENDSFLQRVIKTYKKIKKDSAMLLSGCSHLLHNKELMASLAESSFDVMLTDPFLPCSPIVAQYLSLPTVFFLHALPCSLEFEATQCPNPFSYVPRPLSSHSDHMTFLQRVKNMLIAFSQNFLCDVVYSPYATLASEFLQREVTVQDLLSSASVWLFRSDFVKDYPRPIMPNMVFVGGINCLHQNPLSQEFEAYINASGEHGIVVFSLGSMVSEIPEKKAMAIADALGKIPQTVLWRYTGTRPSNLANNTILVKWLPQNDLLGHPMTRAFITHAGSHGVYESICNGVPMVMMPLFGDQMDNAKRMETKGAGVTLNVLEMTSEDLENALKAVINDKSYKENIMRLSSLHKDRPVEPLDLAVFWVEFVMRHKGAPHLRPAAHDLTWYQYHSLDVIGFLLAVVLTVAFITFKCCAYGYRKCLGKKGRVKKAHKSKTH
Briefly: Activity of human recombinant UGT1A1 expressed in baculovirus-infected insect cells assessed as enzyme-mediated glucuronidation per mg of protein after 10 mins in presence of UDPGA.

A further data set has as its system Liver microsome. Briefly: Drug metabolism in human liver microsomes assessed as glucuronidation per mg of protein after 10 mins by Michaelis-Menten plot analysis in presence of UDPGA and absence of fatty acid free BSA.
Data set [2] concerns the target T2, UDP-glucuronosyltransferase 2B4 (Homo sapiens, UniProt P06133).
T2 sequence (P06133 whole entry): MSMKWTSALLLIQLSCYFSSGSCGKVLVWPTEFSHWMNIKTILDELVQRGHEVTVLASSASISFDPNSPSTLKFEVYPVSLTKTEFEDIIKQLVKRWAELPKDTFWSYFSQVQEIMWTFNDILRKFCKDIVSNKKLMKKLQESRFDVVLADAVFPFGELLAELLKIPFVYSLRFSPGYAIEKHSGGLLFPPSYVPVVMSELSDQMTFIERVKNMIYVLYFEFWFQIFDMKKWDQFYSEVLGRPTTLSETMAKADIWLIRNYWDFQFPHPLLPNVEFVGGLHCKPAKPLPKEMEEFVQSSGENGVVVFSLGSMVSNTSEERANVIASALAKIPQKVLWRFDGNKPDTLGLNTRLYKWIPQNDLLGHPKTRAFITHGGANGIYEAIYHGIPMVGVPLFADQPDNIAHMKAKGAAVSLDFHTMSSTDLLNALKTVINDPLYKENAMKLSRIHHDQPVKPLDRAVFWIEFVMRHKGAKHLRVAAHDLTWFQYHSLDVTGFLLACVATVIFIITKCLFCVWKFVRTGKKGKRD
Kind of data set: Activity of human recombinant UGT2B4 expressed in baculovirus-infected insect cells assessed as enzyme-mediated glucuronidation per mg of protein after 10 mins in presence of UDPGA.

In data set [3] the target is T3, UDP-glucuronosyltransferase 1A8 (Homo sapiens, UniProt Q9HAW9).
T3 sequence (Q9HAW9 whole entry): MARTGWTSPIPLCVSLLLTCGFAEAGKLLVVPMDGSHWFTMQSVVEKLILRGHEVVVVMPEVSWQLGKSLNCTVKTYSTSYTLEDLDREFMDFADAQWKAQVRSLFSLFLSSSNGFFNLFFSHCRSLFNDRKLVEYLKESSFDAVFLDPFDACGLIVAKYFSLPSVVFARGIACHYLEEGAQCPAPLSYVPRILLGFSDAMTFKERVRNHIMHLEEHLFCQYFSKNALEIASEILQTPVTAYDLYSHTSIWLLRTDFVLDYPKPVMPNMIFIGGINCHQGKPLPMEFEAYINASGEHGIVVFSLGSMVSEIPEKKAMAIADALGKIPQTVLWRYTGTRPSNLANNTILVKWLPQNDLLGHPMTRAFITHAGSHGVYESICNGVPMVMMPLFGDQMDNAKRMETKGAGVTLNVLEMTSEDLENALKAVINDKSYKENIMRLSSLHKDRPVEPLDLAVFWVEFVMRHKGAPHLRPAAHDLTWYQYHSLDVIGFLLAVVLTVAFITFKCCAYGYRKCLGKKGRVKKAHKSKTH
Briefly: Inhibition of human recombinant UGT1A8 after 10 mins in presence of UDPGA.

Data set [4] concerns the target T4, UDP-glucuronosyltransferase 1A3 (Homo sapiens, UniProt P35503).
T4 sequence (P35503 whole entry): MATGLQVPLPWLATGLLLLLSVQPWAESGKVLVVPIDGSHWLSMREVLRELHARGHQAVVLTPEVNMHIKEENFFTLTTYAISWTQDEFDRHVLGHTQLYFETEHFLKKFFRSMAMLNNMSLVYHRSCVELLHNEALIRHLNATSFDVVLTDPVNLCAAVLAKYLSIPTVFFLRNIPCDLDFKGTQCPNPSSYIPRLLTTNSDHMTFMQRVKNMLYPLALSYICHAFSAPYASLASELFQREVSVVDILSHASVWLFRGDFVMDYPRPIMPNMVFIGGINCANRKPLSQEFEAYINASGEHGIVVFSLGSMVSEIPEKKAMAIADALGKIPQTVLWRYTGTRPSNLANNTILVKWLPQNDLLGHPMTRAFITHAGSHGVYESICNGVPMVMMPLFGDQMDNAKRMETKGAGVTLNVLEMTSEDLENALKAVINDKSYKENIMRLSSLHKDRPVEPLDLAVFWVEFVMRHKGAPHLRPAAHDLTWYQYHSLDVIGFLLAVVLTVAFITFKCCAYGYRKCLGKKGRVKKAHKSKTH
Kind of data set: Activity of human recombinant UGT1A3 expressed in baculovirus-infected insect cells assessed as enzyme-mediated glucuronidation per mg of protein after 10 mins in presence of UDPGA.

For data set [5], the target named is T5, UDP-glucuronosyltransferase 1A10 (Homo sapiens, UniProt Q9HAW8).
T5 sequence (Q9HAW8 whole entry): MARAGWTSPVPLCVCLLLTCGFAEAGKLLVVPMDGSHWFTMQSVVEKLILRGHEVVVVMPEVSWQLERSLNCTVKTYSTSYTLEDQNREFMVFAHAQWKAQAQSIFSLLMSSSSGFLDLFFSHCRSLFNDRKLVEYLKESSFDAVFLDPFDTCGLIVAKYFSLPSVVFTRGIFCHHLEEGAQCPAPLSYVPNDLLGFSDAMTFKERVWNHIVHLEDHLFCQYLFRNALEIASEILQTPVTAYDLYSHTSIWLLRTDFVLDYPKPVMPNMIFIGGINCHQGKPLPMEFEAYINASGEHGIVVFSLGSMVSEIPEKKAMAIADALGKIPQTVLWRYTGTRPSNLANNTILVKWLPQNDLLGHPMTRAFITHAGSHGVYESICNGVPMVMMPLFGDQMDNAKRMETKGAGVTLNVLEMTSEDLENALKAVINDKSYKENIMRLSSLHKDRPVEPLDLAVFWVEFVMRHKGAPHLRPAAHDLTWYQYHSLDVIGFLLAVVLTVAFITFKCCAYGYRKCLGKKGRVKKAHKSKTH
Kind of data set: Activity of recombinant human UGT1A10 expressed in baculovirus-infected insect cells assessed as enzyme-mediated glucuronidation per mg of protein after 10 mins in presence of UDPGA.

For `COc1ccc(C(=O)Nc2cccc(O)c2NC(=O)c2ccc(N3CCCN(C)CC3)cc2)cc1.O=C(O)CCC(=O)O`, the Drug metabolism is less than 0.01 nmol/min/mg in data set [1], less than 0.01 nmol/min/mg in data set [2], less than 0.01 nmol/min/mg in data set [4] and 0.516 nmol/min/mg in data set [5]. Besides, the Vmax in the data set on Liver microsome came out at 3.75 nmol/min/mg. The inhibitory constant (Ki) in data set [3] is 354 µM.

As usually defined, the Vmax is the rate approached at saturating substrate. A word on the Ki: it is the equilibrium dissociation constant of an inhibitor or competing ligand from its target.
